Data published in ChEMBL document CHEMBL1201862, “PubChem BioAssay data set” (2004).
Calls of active or inactive are those of the source.

How the values were obtained:
[1] = inhibitors of firefly luciferase expression or activity, dose response, H4 neuroglioma cells, luminescence (AID 1990); assay type: functional, cell-based
[2] = cells; assay type: functional, cell-based
[3] = inhibitors of SNCA 5'UTR-driven translation, confirmation, luminescence, H4 neuroglioblastoma cells, dose confirmation (AID 2454); assay type: functional, cell-based;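 also: H4 neuroglioblastoma cells carrying an alpha-synuclein 5'UTR luciferase reporter; potency for inhibition of the luciferase signal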
[4] = Luminescence Cell-Based Dose Response HTS to Identify Inhibitors of 5'UTR Stem-Loop Driven Prion Protein mRNA Translation in H4 Neuroglioblastoma Cells. [Related pubchem assays: 1827 (Project Summary), 1813 (Primary HTS)]; assay type: functional
[5] = luciferase reporter signal reduction – luminescence, H4-C neuroglioblastoma cells, dose response (AID 2458); assay type: functional, cell-based;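 also: H4 neuroglioblastoma cells stably carrying a luciferase reporter gene fusion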
[6] = molecular target: T1, Microphthalmia-associated transcription factor (Homo sapiens, UniProt O75030); assay: TRPM1 promoter luciferase signal decrease, dose response, MITF inhibitor project, cell-based, SK-MEL-5, cherry-picked, set 3 (AID 493073); assay type: functional
T1 sequence (O75030 whole entry): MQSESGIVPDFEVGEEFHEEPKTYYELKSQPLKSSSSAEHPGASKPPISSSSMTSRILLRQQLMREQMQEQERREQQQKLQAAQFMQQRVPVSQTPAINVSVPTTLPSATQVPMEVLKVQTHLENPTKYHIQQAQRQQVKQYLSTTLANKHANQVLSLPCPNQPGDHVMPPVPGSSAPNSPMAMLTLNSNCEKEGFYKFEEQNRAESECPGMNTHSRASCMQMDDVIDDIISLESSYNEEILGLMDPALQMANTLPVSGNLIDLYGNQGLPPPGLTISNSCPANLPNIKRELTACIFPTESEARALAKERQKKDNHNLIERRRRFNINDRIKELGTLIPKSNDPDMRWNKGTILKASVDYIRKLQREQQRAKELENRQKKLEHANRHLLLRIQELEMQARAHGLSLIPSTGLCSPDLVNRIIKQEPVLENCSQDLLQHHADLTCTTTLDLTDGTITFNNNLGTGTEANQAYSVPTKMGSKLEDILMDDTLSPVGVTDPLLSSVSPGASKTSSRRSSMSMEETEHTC

[7] = inhibitors of SNCA 5'UTR-driven reporter translation, confirmation, H4 neuroglioma cells, luminescence (AID 1988); assay type: functional, cell-based
[8] = cytotoxicity in KRAS-transformed pancreatic duct cells, primary screen, cell-based, fluorescence, HTS (AID 431); assay type: functional; conditions: Homo sapiens;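 also: cell line used: HPDE-C7K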
[9] = molecular target: Voltage-dependent T-type calcium channel subunit alpha-1H (Homo sapiens, UniProt O95180); assay type: functional;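 also: channel activity triggered by adding a high calcium stimulation buffer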
[10] = cytotoxicity in HPDE-C7 cells, cell-based, fluorescence, HTS (AID 430); assay type: functional; conditions: Homo sapiens
[11] = A Cell Based Secondary Assay To Explore Cytotoxicity of Compounds that Sensitize Mycobacterium Tuberculosis to Beta-Lactam Antibiotics.; assay type: functional
[12] = molecular target: T2, Zinc finger protein mex-5 (Caenorhabditis elegans, UniProt Q9XUB2); assay: MEX-5/TCR-2 RNA interaction inhibitors, dose response, biochemical, C. elegans, fluorescence polarization (AID 1960)
T2 sequence (Q9XUB2 whole entry): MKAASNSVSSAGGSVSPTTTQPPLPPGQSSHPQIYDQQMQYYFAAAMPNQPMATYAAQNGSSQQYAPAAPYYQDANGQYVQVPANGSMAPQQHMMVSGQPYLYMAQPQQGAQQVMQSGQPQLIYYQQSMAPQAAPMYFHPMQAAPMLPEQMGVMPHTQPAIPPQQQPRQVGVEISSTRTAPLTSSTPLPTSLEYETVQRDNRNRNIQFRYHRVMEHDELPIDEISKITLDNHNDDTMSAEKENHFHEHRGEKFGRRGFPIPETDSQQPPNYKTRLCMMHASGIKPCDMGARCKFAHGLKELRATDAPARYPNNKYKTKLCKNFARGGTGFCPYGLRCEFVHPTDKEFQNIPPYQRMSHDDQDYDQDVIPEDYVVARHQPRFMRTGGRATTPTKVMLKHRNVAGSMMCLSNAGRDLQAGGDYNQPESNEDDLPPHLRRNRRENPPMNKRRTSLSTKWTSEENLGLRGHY

[13] = molecular target: T3, fMet-Leu-Phe receptor (Homo sapiens, UniProt P21462); assay: FPR ligands, dose response (AID 519); assay type: functional
T3 sequence (P21462 whole entry): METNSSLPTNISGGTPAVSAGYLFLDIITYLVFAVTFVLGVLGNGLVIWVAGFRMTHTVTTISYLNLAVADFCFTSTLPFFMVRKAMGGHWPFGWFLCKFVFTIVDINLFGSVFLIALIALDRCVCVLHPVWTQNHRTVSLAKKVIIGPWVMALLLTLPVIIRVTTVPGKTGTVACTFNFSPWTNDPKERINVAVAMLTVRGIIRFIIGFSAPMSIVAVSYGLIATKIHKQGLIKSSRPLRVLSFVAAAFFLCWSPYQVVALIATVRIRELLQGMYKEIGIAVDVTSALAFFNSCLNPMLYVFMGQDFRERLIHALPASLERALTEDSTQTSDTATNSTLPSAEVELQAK

[14] = molecular target: T4, RNA-binding protein pos-1 (Caenorhabditis elegans, UniProt G5EF15); assay: inhibitors of POS-1/mex-3 RNA binding, dose response, biochemical, fluorescence polarization (AID 1964);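 also: purified POS-1 fused to maltose binding protein made in E. coli; potency of compounds blocking POS-1 binding to fluorescent RNA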
T4 sequence (G5EF15 whole entry): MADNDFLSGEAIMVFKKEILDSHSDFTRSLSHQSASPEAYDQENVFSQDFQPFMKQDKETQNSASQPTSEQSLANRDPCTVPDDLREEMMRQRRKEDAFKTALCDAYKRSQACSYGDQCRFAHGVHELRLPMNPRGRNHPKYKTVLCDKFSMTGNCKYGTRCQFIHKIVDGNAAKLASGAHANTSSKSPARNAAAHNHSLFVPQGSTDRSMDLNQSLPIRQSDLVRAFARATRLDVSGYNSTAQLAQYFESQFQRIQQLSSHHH

[15] = molecular target: T5, ORF 73 (Human herpesvirus 8, UniProt O40947); assay: inhibitors of C-LANA binding to LBS DNA, dose response, biochemical, fluorescence polarization, cherry-picked samples (AID 504725); set-up: species or system Human gammaherpesvirus 8;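 also: fluorescence polarization of a labeled DNA duplex reporting LANA DNA binding; potency is for inhibitors that block LANA binding to the DNA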
T5 sequence (O40947 whole entry): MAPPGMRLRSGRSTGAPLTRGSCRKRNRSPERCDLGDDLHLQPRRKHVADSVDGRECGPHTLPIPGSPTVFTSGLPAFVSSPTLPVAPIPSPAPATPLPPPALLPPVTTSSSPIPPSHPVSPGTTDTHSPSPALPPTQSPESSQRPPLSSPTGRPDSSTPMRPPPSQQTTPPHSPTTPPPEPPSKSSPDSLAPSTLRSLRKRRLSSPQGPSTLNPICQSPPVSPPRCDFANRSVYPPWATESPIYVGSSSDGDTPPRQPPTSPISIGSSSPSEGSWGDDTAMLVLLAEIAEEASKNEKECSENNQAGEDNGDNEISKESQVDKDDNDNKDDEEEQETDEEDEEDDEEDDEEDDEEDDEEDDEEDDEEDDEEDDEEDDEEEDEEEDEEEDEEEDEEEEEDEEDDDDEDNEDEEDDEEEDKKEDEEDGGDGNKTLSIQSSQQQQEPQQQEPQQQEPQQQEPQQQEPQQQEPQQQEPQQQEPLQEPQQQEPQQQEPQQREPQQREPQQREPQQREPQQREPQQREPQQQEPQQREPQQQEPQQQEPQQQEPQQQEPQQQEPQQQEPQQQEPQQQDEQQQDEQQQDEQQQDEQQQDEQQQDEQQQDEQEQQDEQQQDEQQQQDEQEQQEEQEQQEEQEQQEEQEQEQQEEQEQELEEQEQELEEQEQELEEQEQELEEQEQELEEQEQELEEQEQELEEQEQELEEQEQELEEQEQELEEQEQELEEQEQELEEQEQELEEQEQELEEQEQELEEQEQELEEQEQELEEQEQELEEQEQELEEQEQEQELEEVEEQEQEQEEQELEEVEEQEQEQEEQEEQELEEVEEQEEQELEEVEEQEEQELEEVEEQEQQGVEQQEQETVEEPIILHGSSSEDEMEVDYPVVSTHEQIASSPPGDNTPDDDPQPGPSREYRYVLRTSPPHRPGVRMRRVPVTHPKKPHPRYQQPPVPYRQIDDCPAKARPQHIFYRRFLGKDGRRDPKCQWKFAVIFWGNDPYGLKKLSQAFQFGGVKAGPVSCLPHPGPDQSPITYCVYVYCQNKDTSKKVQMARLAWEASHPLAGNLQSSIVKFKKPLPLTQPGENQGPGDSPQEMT

[16] = system: HeLa; assay: HeLa cell cytotoxicity, dose response, cytotoxicity control, 24 h, cherry-picked samples (AID 504726); assay type: functional, cell-based; conditions: Homo sapiens;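 also: potency for cytotoxicity as loss of luminescence signal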
[17] = cytotoxicity in HEK-293T cells, dose response, cytotoxicity control for BCR NF-kB inhibitor project, luminescence, B-cell screen hits (AID 489021); assay type: functional, cell-based;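 also: HEK-293T cells carrying an NF-kB luciferase reporter; cells exposed to compound for about 14 hours before viability readout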
[18] = molecular target: NS3 (Hepatitis C virus, UniProt A3EZJ3); assay: PubChem AID 2173; set-up: species or system Hepacivirus hominis
[19] = molecular target: Cytochrome P450 2C19 (Homo sapiens, UniProt P33261); assay: Cytochrome panel assay with activity outcomes. Panel member name: p450-cyp2c19 Compounds with AC50 equal or less than 10 uM are considered active; assay type: functional; conditions: read-out: AC50
[20] = molecular target: 26S proteasome non-ATPase regulatory subunit 14 (Homo sapiens, UniProt O00487); assay: inhibition of proteasome subunit RPN11 – biochemical, fluorescence polarization, uHTS hits, confirmation (AID 602368); assay type: functional
[21] = molecular target: Cytochrome P450 3A4 (Homo sapiens, UniProt P08684);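 also: CYP3A4 tested as one member of a cytochrome P450 panel screen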
[22] = molecular target: T6, Voltage-gated N-type calcium channel alpha-1B subunit/Amyloid beta A4 precursor protein-binding family A member 1 (Homo sapiens, UniProt Q00975+Q02410); assay type: protein assay
[23] = molecular target: Induced myeloid leukemia cell differentiation protein Mcl-1 (Homo sapiens, UniProt Q07820); assay type: functional
[24] = molecular target: Prothrombin (Bos taurus, UniProt P00735); assay: thrombin inhibition, dose response, biochemical, fluorescence polarization, uHTS hits (AID 602369); assay type: functional
[25] = molecular target: 72 kDa type IV collagenase (Homo sapiens, UniProt P08253); assay: Dose Response validation of uHTS RPN11 inhibitor hits using a MMP-2 Fluorescence assay.; assay type: functional
[26] = molecular target: T6, Voltage-gated N-type calcium channel alpha-1B subunit/Amyloid beta A4 precursor protein-binding family A member 1; assay type: protein assay; remark: listed apart in the source

T6 sequence (Q00975 whole entry): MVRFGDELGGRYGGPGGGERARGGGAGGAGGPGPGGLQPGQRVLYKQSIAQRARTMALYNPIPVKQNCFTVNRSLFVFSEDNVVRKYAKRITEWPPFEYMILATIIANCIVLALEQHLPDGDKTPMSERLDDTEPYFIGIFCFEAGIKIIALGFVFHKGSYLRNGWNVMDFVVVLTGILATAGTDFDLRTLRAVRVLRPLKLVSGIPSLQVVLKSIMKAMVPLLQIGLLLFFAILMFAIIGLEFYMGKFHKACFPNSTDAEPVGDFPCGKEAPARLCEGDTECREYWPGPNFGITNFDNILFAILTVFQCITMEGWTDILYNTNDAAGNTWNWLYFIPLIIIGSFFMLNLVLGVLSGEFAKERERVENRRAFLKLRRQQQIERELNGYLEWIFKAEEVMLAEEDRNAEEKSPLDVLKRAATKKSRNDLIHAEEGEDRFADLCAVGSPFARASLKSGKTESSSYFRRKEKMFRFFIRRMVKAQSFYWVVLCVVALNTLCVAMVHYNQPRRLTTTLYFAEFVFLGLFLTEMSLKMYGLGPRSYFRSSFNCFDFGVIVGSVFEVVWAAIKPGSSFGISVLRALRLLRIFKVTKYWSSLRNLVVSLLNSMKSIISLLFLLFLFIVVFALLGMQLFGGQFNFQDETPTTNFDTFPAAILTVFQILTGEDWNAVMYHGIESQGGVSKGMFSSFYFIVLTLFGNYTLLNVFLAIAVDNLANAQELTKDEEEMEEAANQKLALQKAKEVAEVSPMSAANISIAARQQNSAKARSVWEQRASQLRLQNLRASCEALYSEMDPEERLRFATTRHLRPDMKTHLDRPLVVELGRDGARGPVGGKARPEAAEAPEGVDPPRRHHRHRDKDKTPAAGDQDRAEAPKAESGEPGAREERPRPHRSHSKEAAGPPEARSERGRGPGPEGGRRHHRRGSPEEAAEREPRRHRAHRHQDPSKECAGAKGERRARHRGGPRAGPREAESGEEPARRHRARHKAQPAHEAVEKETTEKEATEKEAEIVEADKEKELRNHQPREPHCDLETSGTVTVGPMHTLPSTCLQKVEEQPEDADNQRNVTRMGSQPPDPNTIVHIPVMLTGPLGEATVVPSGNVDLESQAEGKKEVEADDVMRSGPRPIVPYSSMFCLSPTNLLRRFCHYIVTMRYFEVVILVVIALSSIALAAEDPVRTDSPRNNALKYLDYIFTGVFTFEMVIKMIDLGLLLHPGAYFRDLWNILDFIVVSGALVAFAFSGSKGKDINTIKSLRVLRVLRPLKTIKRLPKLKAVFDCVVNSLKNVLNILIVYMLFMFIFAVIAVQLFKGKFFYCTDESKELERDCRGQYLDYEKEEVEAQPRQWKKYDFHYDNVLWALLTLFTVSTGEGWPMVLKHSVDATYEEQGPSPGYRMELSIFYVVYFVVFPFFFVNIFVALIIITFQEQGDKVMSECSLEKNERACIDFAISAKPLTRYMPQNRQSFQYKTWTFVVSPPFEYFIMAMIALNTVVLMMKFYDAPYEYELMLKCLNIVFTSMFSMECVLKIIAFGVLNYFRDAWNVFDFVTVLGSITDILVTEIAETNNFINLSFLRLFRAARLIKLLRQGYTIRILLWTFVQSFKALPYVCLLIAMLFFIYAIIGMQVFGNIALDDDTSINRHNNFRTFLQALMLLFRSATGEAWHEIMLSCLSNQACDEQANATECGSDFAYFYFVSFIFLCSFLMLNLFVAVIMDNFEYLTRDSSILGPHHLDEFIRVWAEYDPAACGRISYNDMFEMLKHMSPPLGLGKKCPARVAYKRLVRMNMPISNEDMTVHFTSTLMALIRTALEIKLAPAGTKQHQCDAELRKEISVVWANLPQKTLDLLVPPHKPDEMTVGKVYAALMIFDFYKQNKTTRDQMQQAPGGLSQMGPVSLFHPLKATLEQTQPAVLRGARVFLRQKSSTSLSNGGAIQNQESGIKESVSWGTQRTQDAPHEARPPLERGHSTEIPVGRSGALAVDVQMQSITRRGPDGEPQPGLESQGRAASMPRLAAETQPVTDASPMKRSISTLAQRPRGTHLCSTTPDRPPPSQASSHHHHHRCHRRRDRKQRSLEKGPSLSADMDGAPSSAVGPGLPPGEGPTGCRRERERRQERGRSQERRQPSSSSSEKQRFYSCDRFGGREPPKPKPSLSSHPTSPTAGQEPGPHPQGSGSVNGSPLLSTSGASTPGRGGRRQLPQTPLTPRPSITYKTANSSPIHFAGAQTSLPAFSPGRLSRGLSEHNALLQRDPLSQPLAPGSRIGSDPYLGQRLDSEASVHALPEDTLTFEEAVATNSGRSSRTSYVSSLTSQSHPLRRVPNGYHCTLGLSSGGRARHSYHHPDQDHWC
T6 sequence (Q02410 whole entry): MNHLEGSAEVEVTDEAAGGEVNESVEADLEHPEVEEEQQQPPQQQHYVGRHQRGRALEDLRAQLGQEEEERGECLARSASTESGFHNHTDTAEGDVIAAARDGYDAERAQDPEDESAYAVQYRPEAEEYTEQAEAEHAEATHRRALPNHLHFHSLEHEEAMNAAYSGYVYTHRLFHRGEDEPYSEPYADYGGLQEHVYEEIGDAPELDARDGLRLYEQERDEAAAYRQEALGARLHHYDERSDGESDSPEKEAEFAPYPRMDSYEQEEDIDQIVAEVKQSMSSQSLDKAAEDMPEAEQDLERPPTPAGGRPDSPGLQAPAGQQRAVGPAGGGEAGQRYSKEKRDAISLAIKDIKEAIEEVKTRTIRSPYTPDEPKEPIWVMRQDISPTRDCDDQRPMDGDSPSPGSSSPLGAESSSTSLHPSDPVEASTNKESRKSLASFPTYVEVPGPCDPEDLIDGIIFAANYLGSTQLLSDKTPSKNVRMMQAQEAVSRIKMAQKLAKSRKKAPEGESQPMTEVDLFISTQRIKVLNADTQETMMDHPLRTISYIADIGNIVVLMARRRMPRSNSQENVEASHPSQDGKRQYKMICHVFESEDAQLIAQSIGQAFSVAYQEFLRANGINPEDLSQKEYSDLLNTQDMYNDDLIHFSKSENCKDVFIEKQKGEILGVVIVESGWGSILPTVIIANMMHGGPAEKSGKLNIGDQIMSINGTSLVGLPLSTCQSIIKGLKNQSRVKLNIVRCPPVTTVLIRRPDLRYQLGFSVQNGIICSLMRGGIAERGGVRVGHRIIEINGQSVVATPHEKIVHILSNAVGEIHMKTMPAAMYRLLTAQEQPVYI
Cytochrome P450 2C19, sequence (P33261 whole entry): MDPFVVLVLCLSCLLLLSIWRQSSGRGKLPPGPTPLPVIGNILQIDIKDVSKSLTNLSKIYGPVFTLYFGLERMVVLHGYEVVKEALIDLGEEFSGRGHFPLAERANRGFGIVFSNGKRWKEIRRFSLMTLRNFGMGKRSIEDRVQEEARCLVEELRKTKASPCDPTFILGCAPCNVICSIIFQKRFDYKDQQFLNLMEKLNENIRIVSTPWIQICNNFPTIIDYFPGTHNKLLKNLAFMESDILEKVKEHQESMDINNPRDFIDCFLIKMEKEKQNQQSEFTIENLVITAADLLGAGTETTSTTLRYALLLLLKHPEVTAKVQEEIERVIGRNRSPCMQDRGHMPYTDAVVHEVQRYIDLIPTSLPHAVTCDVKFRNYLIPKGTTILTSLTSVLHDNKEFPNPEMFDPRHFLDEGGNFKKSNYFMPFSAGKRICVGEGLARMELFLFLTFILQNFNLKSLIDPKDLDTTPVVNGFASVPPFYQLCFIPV
72 kDa type IV collagenase, sequence (P08253 whole entry): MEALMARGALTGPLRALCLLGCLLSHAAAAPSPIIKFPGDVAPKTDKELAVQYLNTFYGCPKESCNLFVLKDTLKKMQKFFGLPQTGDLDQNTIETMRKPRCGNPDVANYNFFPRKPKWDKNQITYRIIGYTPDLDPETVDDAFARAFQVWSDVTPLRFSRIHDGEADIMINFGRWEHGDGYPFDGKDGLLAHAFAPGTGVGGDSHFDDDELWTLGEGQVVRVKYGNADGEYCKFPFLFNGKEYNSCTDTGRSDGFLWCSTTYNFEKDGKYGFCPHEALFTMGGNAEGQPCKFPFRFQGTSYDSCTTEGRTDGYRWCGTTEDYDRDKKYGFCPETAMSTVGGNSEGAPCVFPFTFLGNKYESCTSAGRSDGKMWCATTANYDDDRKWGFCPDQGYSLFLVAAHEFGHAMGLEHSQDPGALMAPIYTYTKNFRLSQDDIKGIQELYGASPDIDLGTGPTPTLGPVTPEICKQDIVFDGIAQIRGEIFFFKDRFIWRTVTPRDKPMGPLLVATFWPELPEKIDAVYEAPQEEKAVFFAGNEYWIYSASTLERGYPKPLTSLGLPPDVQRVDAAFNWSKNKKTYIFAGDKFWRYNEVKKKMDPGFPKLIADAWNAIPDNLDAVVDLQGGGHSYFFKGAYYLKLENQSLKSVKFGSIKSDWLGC
26S proteasome non-ATPase regulatory subunit 14, sequence (O00487 whole entry): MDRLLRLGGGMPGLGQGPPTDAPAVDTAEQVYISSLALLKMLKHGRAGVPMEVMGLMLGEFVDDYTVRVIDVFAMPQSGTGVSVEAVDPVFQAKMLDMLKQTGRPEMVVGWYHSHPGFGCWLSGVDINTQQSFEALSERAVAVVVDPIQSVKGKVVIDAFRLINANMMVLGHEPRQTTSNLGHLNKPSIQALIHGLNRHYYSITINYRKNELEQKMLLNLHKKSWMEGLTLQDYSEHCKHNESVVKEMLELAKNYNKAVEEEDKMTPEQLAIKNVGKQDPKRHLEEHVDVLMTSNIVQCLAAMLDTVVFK
Induced myeloid leukemia cell differentiation protein Mcl-1, sequence (Q07820 whole entry): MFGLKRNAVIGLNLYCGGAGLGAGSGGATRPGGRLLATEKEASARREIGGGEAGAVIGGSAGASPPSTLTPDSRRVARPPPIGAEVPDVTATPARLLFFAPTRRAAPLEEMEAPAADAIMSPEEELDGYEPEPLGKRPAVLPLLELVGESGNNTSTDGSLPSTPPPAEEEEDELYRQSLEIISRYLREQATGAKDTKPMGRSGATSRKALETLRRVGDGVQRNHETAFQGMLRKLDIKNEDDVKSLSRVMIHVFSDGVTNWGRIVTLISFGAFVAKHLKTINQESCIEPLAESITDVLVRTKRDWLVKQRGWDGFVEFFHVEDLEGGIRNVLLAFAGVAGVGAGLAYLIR

With `Nc1ccc(-c2ncc(-c3ccccc3)o2)cc1` the EC50 [1] was < 0.1 µM (active), the EC50 [2] was 0.178 µM (active) and the EC50 [3] was 0.07 µM (active). The EC50 [4] was < 0.1 µM (active), the EC50 [5] was 0.044 µM (active) and the AC50 [6] was 0.171 µM (active). The EC50 [7] was < 0.1 µM (active).
In the case of `COc1cc(C)c(C(C)C)cc1S(=O)(=O)n1cnc(C)c1`, the EC50 [8] is reported as 4.11 µM (active), the EC50 [1] is reported as > 120 µM (not active) and the EC50 [9] is reported as 52.3 µM (active). For the same compound, the EC50 [10] was 3.47 µM (active), the EC50 [4] was > 120 µM (not active) and the EC50 [7] was 9.12 µM (active).
With `COc1cc(C(=O)Nc2cccc(-c3cn4cccnc4n3)c2)cc(OC)c1OC` the CC50 [11] was > 40 µM (active).
For `COc1ccc(C2C(C(=O)c3cccs3)=C(O)C(=O)N2c2nnc(C)s2)cc1OC` (stereo not given), the EC50 [12] was 5.19 µM (active), the Ki [13] was > 66.7 µM (inactive) and the EC50 [14] was 7.2 µM (active). For the same compound, the AC50 [15] was 17.5 µM (active) and the AC50 [16] was > 350 µM (inactive).
In the case of `CCOC(=O)N1CCN(CC(=O)Nc2ccc([N+](=O)[O-])cc2C(=O)Nc2ccccc2F)CC1`, the IC50 [17] is reported as 51.6 µM (inactive).
In the case of `Cc1cc(C(=O)CN2C(=O)NC(c3ccccc3)(c3ccccc3)C2=O)c(C)n1Cc1ccccc1`, the CC50 [11] is reported as > 40 µM (active).
For `COc1cc2cc3c(N)c(C(=O)Nc4sc(C)c(C)c4C#N)sc3nc2cc1OC`, the IC50 [18] was > 36.3 µM (not active), the AC50 [19] was 15.8 µM (inconclusive) and the IC50 [20] was 48.3 µM (active). For the same compound, the AC50 [21] was 8.91 µM (inconclusive), the IC50 [22] was > 50 µM (inactive) and the IC50 [23] was 1.26 µM (active). The IC50 [24] was 25.8 µM (active), the IC50 [25] was 8.14 µM (active) and the IC50 [26] was 11.8 µM (active).
